Measurements published in patent publication US20060069132A1, “Azolecarboxamide herbicides” (priority 2004, published 2006).

What was measured:
[1] = test system: wild oat; test: Test B postemergence herbicide test; type: in vivo, Avena fatua
Outline: (§1)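 Each value is a visual 0–100 response rating taken against controls 13 to 15 days after treatment in the greenhouse. Plants received formulated chemical postemergence at the 1- to 4-leaf stage or, in flooded paddy, at the 2-leaf stage.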

[2] = test system: cocklebur; test: Test B pre-/postemergence herbicide test; type: in vivo, Xanthium strumarium; conditions: for Plant response rating (0 to 100 scale), Cocklebur: 0 is no effect, 100 is complete control, preemergence
Outline: (§2)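 Evaluation is visual, comparing treated with control plants on a scale where 0 means no effect and 100 means full control. Treatments were preemergence, or postemergence on seedlings 2–18 cm tall, and held 13–15 days in the greenhouse.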

[3] = test system: morningglory; test: Test B pre-/postemergence herbicide test; type: in vivo, Ipomoea coccinea; conditions: for Plant response rating (0 to 100 scale), Morningglory: 0 is no effect, 100 is complete control, preemergence
Outline: as §2

[4] = test system: pigweed; test: Test B pre-/postemergence herbicide test; type: in vivo, Amaranthus retroflexus; conditions: for Plant response rating (0 to 100 scale), Pigweed: 0 is no effect, 100 is complete control, preemergence
Outline: (§3)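 Test chemicals in a non-phytotoxic solvent mixture with surfactant were applied preemergence to seeded species and postemergence to plants 2-18 cm tall (1- to 4-leaf stage); rice and barnyardgrass were also tested in a flooded paddy at the 2-leaf stage. Visual rating versus controls after 13-15 days in greenhouse, scale 0 (no effect) to 100 (complete control).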

[5] = test system: Surinam grass; test: Test B pre-/postemergence herbicide test; type: in vivo, Urochloa decumbens; conditions: for Plant response rating (0 to 100 scale), Surinam Grass: 0 is no effect, 100 is complete control, preemergence
Outline: as §3

[6] = test system: small flower umbrella sedge; test: Test B flooded paddy test; type: in vivo, Cyperus difformis; conditions: 1000 g ai/ha, scale 0 to 100 (0 no effect, 100 complete control)
Outline: as §1

[7] = test system: large crabgrass; test: Test B pre-/postemergence herbicide test; type: in vivo, Digitaria sanguinalis; conditions: for Plant response rating (0 to 100 scale), Crabgrass, Large: 0 is no effect, 100 is complete control, preemergence
Outline: as §3

[8] = test system: blackgrass; test: Test B postemergence herbicide test; type: in vivo, Alopecurus myosuroides
Outline: as §1

[9] = test system: ducksalad; test: Test B flooded paddy test; type: in vivo, Heteranthera limosa; conditions: 1000 g ai/ha, scale 0 to 100 (0 no effect, 100 complete control)
Outline: as §1

[10] = test system: velvetleaf; test: Test B pre-/postemergence herbicide test; type: in vivo, Abutilon theophrasti; conditions: for Plant response rating (0 to 100 scale), Velvetleaf: 0 is no effect, 100 is complete control, preemergence
Outline: as §3

[11] = test system: giant foxtail; test: Test B pre-/postemergence herbicide test; type: in vivo, Setaria faberi; conditions: for Plant response rating (0 to 100 scale), Foxtail, Giant: 0 is no effect, 100 is complete control, preemergence
Outline: as §3

[12] = test system: rice; test: Test B flooded paddy test; type: in vivo, Oryza sativa; conditions: 1000 g ai/ha, scale 0 to 100 (0 no effect, 100 complete control)
Outline: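 Paddy species grown to the 2-leaf stage under flooding; blackgrass sprayed postemergence at 2–18 cm (1- to 4-leaf stage). Plants kept in a greenhouse for 13 to 15 days, then visually rated against controls on 0 (no effect) to 100 (complete control).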

[13] = test system: barnyardgrass; test: Test B flooded paddy test; type: in vivo, Echinochloa crus-galli; conditions: 1000 g ai/ha, scale 0 to 100 (0 no effect, 100 complete control)
Outline: as §1

[14] = test system: lambsquarters; test: Test B pre-/postemergence herbicide test; type: in vivo, Chenopodium album; conditions: for Plant response rating (0 to 100 scale), Lambsquarters: 0 is no effect, 100 is complete control, preemergence
Outline: as §3

[15] = test system: barnyardgrass; test: Test B pre-/postemergence herbicide test; type: in vivo, Echinochloa crus-galli; conditions: for Plant response rating (0 to 100 scale), Barnyardgrass: 0 is no effect, 100 is complete control, preemergence; for Barnyardgrass plant response rating: Postemergence, scale 0 (no effect) to 100 (complete control)
Outline: as §2

[16] = test system: corn; test: Test B pre-/postemergence herbicide test; type: in vivo, Zea mays; conditions: for Plant response rating (0 to 100 scale), Corn: 0 is no effect, 100 is complete control, preemergence
Outline: as §3

[17] = test system: wheat; test: Test B postemergence herbicide test; type: in vivo, Triticum aestivum; set-up: key to Wheat plant response rating: 0 = no effect, 100 = complete control
Outline: as §1

[18] = Postemergence, 500 g ai/ha, scale 0 (no effect) to 100 (complete control)
[19] = postemergence, 125 g ai/ha, scale 0 to 100
[20] = 500 g ai/ha, scale 0 to 100, 0 no effect, 100 complete control, preemergence

For CCOC(=O)c1cncc(NC(=O)c2nn(C(C)(C)C)nc2C)c1 [Compound 422], the “Oat, Wild plant response rating” value [1, 18] was 0, the “Oat, Wild plant response rating” value [1, 19] was 0 and the “Plant response rating (0 to 100 scale), Cocklebur” value ([2]; 125 g ai/ha) was 0. For the same molecule, the “Cocklebur plant response rating” value [2, 18] was 0, the “Cocklebur plant response rating” value [2, 19] was 0 and the “Plant response rating (0 to 100 scale), Morningglory” value ([3]; 125 g ai/ha) was 0. The “Morningglory plant response rating” value [3, 18] was 0, the “Morningglory plant response rating” value [3, 19] was 0 and the “Plant response rating (0 to 100 scale), Pigweed” value ([4]; 125 g ai/ha) was 0. For the same molecule, the “Pigweed plant response rating” value [4, 18] was 0, the “Pigweed plant response rating” value [4, 19] was 0 and the “Plant response rating (0 to 100 scale), Surinam Grass” value ([5]; 125 g ai/ha) was 0. For the same molecule, the “Surinam Grass plant response rating” value [5, 18] was 0, the “Surinam Grass plant response rating” value [5, 19] was 0 and the “Sedge, Umbrella plant response rating” value [6] was 70. The “Plant response rating (0 to 100 scale), Crabgrass, Large” value ([7]; 125 g ai/ha) was 0, the “Crabgrass, Large plant response rating” value [7, 18] was 0 and the “Crabgrass, Large plant response rating” value [7, 19] was 0. For the same molecule, the “Blackgrass plant response rating” value [8, 18] was 20, the “Blackgrass plant response rating” value [8, 19] was 20 and the “Ducksalad plant response rating” value [9] was 20. The “Plant response rating (0 to 100 scale), Velvetleaf” value ([10]; 125 g ai/ha) was 0, the “Velvetleaf plant response rating” value [10, 18] was 0 and the “Velvetleaf plant response rating” value [10, 19] was 0. For the same molecule, the “Plant response rating (0 to 100 scale), Foxtail, Giant” value ([11]; 125 g ai/ha) was 0, the “Foxtail, Giant plant response rating” value [11, 18] was 0 and the “Foxtail, Giant plant response rating” value [11, 19] was 0. For the same molecule, the “Rice plant response rating” value [12] was 30, the “Barnyardgrass plant response rating” value [13] was 30 and the “Plant response rating (0 to 100 scale), Lambsquarters” value ([14]; 125 g ai/ha) was 0. The “Lambsquarters plant response rating” value [14, 18] was 0, the “Lambsquarters plant response rating” value [14, 19] was 0 and the “Plant response rating (0 to 100 scale), Barnyardgrass” value ([15]; 125 g ai/ha) was 0. The “Barnyardgrass plant response rating” value ([15]; 125 g ai/ha) was 0, the “Barnyardgrass plant response rating” value ([15]; 500 g ai/ha) was 0 and the “Plant response rating (0 to 100 scale), Corn” value ([16]; 125 g ai/ha) was 0. The “Corn plant response rating” value [16, 18] was 0, the “Corn plant response rating” value [16, 19] was 0 and the “Wheat plant response rating” value [17, 20] was 0. The “Wheat plant response rating” value [17, 18] was 0 and the “Wheat plant response rating” value [17, 19] was 0.

CCNC(=O)c1cncc(NC(=O)c2nn(C(C)(C)C)nc2C)c1 [Compound 427] was tested, and the “Oat, Wild plant response rating” value [1, 18] was 0, the “Oat, Wild plant response rating” value [1, 19] was 0 and the “Plant response rating (0 to 100 scale), Cocklebur” value ([2]; 125 g ai/ha) was 0. For the same molecule, the “Cocklebur plant response rating” value [2, 18] was 10, the “Cocklebur plant response rating” value [2, 19] was 10 and the “Plant response rating (0 to 100 scale), Morningglory” value ([3]; 125 g ai/ha) was 0. The “Morningglory plant response rating” value [3, 18] was 30, the “Morningglory plant response rating” value [3, 19] was 20 and the “Plant response rating (0 to 100 scale), Pigweed” value ([4]; 125 g ai/ha) was 30. For the same molecule, the “Pigweed plant response rating” value [4, 18] was 40, the “Pigweed plant response rating” value [4, 19] was 20 and the “Plant response rating (0 to 100 scale), Surinam Grass” value ([5]; 125 g ai/ha) was 0. The “Surinam Grass plant response rating” value [5, 18] was 10, the “Surinam Grass plant response rating” value [5, 19] was 0 and the “Sedge, Umbrella plant response rating” value [6] was 0. For the same molecule, the “Plant response rating (0 to 100 scale), Crabgrass, Large” value ([7]; 125 g ai/ha) was 0, the “Crabgrass, Large plant response rating” value [7, 18] was 30 and the “Crabgrass, Large plant response rating” value [7, 19] was 0. For the same molecule, the “Blackgrass plant response rating” value [8, 18] was 20, the “Blackgrass plant response rating” value [8, 19] was 0 and the “Ducksalad plant response rating” value [9] was 0. For the same molecule, the “Plant response rating (0 to 100 scale), Velvetleaf” value ([10]; 125 g ai/ha) was 0, the “Velvetleaf plant response rating” value [10, 18] was 30 and the “Velvetleaf plant response rating” value [10, 19] was 10. For the same molecule, the “Plant response rating (0 to 100 scale), Foxtail, Giant” value ([11]; 125 g ai/ha) was 0, the “Foxtail, Giant plant response rating” value [11, 18] was 10 and the “Foxtail, Giant plant response rating” value [11, 19] was 0. For the same molecule, the “Rice plant response rating” value [12] was 0, the “Barnyardgrass plant response rating” value [13] was 0 and the “Plant response rating (0 to 100 scale), Lambsquarters” value ([14]; 125 g ai/ha) was 10. For the same molecule, the “Lambsquarters plant response rating” value [14, 18] was 40, the “Lambsquarters plant response rating” value [14, 19] was 10 and the “Plant response rating (0 to 100 scale), Barnyardgrass” value ([15]; 125 g ai/ha) was 0. For the same molecule, the “Barnyardgrass plant response rating” value ([15]; 125 g ai/ha) was 0, the “Barnyardgrass plant response rating” value ([15]; 500 g ai/ha) was 0 and the “Plant response rating (0 to 100 scale), Corn” value ([16]; 125 g ai/ha) was 0. The “Corn plant response rating” value [16, 18] was 0, the “Corn plant response rating” value [16, 19] was 0 and the “Wheat plant response rating” value [17, 20] was 0. The “Wheat plant response rating” value [17, 18] was 0 and the “Wheat plant response rating” value [17, 19] was 0.

For CCN(CC)C(=O)c1ccnc(NC(=O)c2nn(C(C)(C)C)nc2C)c1 [Compound 425], the “Oat, Wild plant response rating” value [1, 18] was 0, the “Oat, Wild plant response rating” value [1, 19] was 0 and the “Plant response rating (0 to 100 scale), Cocklebur” value ([2]; 125 g ai/ha) was 0. For the same molecule, the “Cocklebur plant response rating” value [2, 18] was 20, the “Cocklebur plant response rating” value [2, 19] was 10 and the “Plant response rating (0 to 100 scale), Morningglory” value ([3]; 125 g ai/ha) was 0. For the same molecule, the “Morningglory plant response rating” value [3, 18] was 80, the “Morningglory plant response rating” value [3, 19] was 70 and the “Plant response rating (0 to 100 scale), Pigweed” value ([4]; 125 g ai/ha) was 70. For the same molecule, the “Pigweed plant response rating” value [4, 18] was 70, the “Pigweed plant response rating” value [4, 19] was 50 and the “Plant response rating (0 to 100 scale), Surinam Grass” value ([5]; 125 g ai/ha) was 40. For the same molecule, the “Surinam Grass plant response rating” value [5, 18] was 20, the “Surinam Grass plant response rating” value [5, 19] was 10 and the “Sedge, Umbrella plant response rating” value [6] was 70. The “Plant response rating (0 to 100 scale), Crabgrass, Large” value ([7]; 125 g ai/ha) was 80, the “Crabgrass, Large plant response rating” value [7, 18] was 30 and the “Crabgrass, Large plant response rating” value [7, 19] was 20. For the same molecule, the “Blackgrass plant response rating” value [8, 18] was 20, the “Blackgrass plant response rating” value [8, 19] was 0 and the “Ducksalad plant response rating” value [9] was 70. The “Plant response rating (0 to 100 scale), Velvetleaf” value ([10]; 125 g ai/ha) was 20, the “Velvetleaf plant response rating” value [10, 18] was 30 and the “Velvetleaf plant response rating” value [10, 19] was 20. The “Plant response rating (0 to 100 scale), Foxtail, Giant” value ([11]; 125 g ai/ha) was 20, the “Foxtail, Giant plant response rating” value [11, 18] was 30 and the “Foxtail, Giant plant response rating” value [11, 19] was 20. The “Rice plant response rating” value [12] was 20, the “Barnyardgrass plant response rating” value [13] was 30 and the “Plant response rating (0 to 100 scale), Lambsquarters” value ([14]; 125 g ai/ha) was 80. For the same molecule, the “Lambsquarters plant response rating” value [14, 18] was 70, the “Lambsquarters plant response rating” value [14, 19] was 60 and the “Plant response rating (0 to 100 scale), Barnyardgrass” value ([15]; 125 g ai/ha) was 10. The “Barnyardgrass plant response rating” value ([15]; 125 g ai/ha) was 10, the “Barnyardgrass plant response rating” value ([15]; 500 g ai/ha) was 20 and the “Plant response rating (0 to 100 scale), Corn” value ([16]; 125 g ai/ha) was 0. For the same molecule, the “Corn plant response rating” value [16, 18] was 20, the “Corn plant response rating” value [16, 19] was 10 and the “Wheat plant response rating” value [17, 20] was 30. For the same molecule, the “Wheat plant response rating” value [17, 18] was 0 and the “Wheat plant response rating” value [17, 19] was 0.
